# Results from ChEMBL document CHEMBL4715696, “In vitro synergistic anticancer activity of the combination of T-type calcium channel blocker and chemotherapeutic agent in A549 cells” (Bioorg Med Chem Lett, 2016).
# Key:
# [1] = system: A549; experiment: Decrease in cell cycle associated protein expression in human A549 cells assessed as fold change in CDK2 expression at 10 uM after 24 hrs by Western blot analysis (reference value: 0.79); format: functional
# [2] = system: A549; experiment: Potentiation of etoposide-induced cell cycle arrest in human A549 cells assessed as accumulation at sub G1 phase at 2.5 uM in presence of etoposide after 48 hrs by flow cytometric analysis (Rvb =33 %); format: functional
compound,measurement,setting,value
CN(C)C(=O)NCCCN(C)C1=Nc2ccccc2C(CC(=O)NCc2ccc(F)cc2)N1c1ccc(C2CCCCC2)cc1 (configuration not stated),fold change (FC),[1],0.61
same,Activity,[2],36.9%
